Reference: the NIST ThermoML archive (doi:10.1021/je400849a)

Experiments:
[1] = 101.33 kPa, Liquid; for mass density: Vibrating tube method
[2] = refractive index (Na D-line) (dimensionless); settings: 101.33 kPa, Liquid, Standard Abbe refractometry

CCCCCCCCCCCCOS(=O)(=O)[O-].CCCCCCCCCCn1cc[n+](CCC#N)c1 [3-(2-cyanoethyl)-1-decylimidazolium dodecylsulfate]
Settings	mass density, [1] [kg/m3]	refractive index, [2]	viscosity, [1] [mPa·s]
293.15 K	1053	–	–
298.15 K	1050.4	1.47447	–
303.15 K	1046.9	1.47296	16145
308.15 K	1043.3	1.47142	10417
313.15 K	1041.8	1.46972	6231
318.15 K	1038.6	1.46813	3951
323.15 K	1036.1	1.46678	2583
328.15 K	1034.3	1.46532	1757
333.15 K	1032.5	1.46391	1252
338.15 K	1029.9	–	904
343.15 K	1027.3	–	588
348.15 K	1025.8	–	418
353.15 K	1023.9	–	296

CCCCCCCCCCCCOS(=O)(=O)[O-].CCCCn1cc[n+](CCC#N)c1 [1-butyl-3-(2-cyanoethyl)-1H-imidazol-3-ium dodecyl sulfate]
Settings	mass density, [1] [kg/m3]	refractive index, [2]	viscosity, [1] [mPa·s]
293.15 K	1128.9	–	13007
298.15 K	1123.2	1.48791	7875
303.15 K	1119.8	1.48619	4746
308.15 K	1116.1	1.48443	2938
313.15 K	1112.2	1.48232	1740
318.15 K	1108.9	1.48009	1144
323.15 K	1105	1.47842	768
328.15 K	1101.9	1.47695	485
333.15 K	1097.7	1.47487	338
338.15 K	1093.6	–	235
343.15 K	1089.7	–	162
348.15 K	1086.3	–	114
353.15 K	1082.2	–	76

CCCCn1cc[n+](CCC#N)c1.O=S(=O)([O-])c1ccccc1 [1-butyl-3-(2-cyanoethyl)-1H-imidazolium benzenesulfonate]
Settings	mass density, [1] [kg/m3]	refractive index, [2]	viscosity, [1] [mPa·s]
293.15 K	1240.3	–	4612
298.15 K	1236.8	1.53378	2752
303.15 K	1233.4	1.53237	1806
308.15 K	1230.2	1.53113	1203
313.15 K	1226.3	1.52975	792
318.15 K	1223.7	1.52824	505
323.15 K	1220.3	1.52684	321
328.15 K	1217.1	1.52544	214
333.15 K	1213.5	1.52403	152
338.15 K	1210.1	–	109
343.15 K	1207.1	–	78
348.15 K	1204.4	–	54
353.15 K	1201.3	–	38

CCCCCCCCCCn1cc[n+](CCC#N)c1.O=C([O-])c1cccc(S(=O)(=O)O)c1 [3-(2-cyanoethyl)-1-decylimidazolium 3-sulfobenzoate]
Settings	mass density, [1] [kg/m3]	refractive index, [2]	viscosity, [1] [mPa·s]
293.15 K	1136.6	–	–
298.15 K	1133.5	1.51306	17650
303.15 K	1129.9	1.51163	11449
308.15 K	1126.3	1.50998	7159
313.15 K	1123.2	1.50871	4606
318.15 K	1119.8	1.50706	3028
323.15 K	1116.2	1.50582	1977
328.15 K	1112.7	1.5045	1431
333.15 K	1109.5	1.50322	944
338.15 K	1105.9	–	623
343.15 K	1102.6	–	431
348.15 K	1099.3	–	294
353.15 K	1095.8	–	198
